Experimental data from patent US20220389355A1, “CELL AGGREGATE, PRODUCING METHOD FOR MANUFACTURING CELL AGGREGATE, PRODUCING KIT FOR CELL AGGREGATE, AND CHEMICAL COMPOUND EVALUATING METHOD USING CELL AGGREGATE” (THE JAPAN WOOL TEXTILE CO., LTD., priority 2019, published 2022).
Read-outs that look alike come from different tables or passages of the source.

Key:
[1] = tested on: cardiomyocyte multicellular construct (human iPS cell derived cardiomyocytes); assay: Example 7: calcium imaging evaluation of response of cardiomyocyte multicellular construct against compound; format: cell-based; settings: seventh day of the culture; for Calcium ion signal waveform compared with before the addition: 1000 nM, cumulative addition, 10 minutes after addition; for Beating rate compared with before the addition: cumulative addition 1 to 1000 nM
Procedure: Cells were seeded and cultured in the same manner as in Example 6, except that the cells were seeded such that the seeding amount per unit area of the scaffold was 6000 cells/mm^2.
On the sixth day of the culture, the cardiomyocyte multicellular construct was placed such that a surface containing more cells faced the bottom surface of a culture dish (IWAKI Multiwell Plate, Non-treated surface for suspension cell culture 6. Well), and was then left to stand for a day. On the seventh day of the culture, a calcium indicator (EarlyTox Cardiotoxicity Kit, Molecular Devices LLC) was added to the culture medium at a volume ratio of 25/100 to fluorescently stain calcium ions in the cardiomyocytes.
The fluorescence intensities in the entire 10-fold magnified visual fields of the obtained images were plotted versus time using an analysis software CellPathfinder, Yokogawa Electric Corp.), and thus signal waveforms of calcium ions in the cardiomyocytes were obtained. Verapamil is a Ca channel antagonist having an Ikr inhibitory effect.

[2] = tested on: cardiomyocyte multicellular construct (human iPS cell derived cardiomyocytes); assay: Example 7: contractile force and contraction-relaxation rate of cardiomyocyte multicellular construct (MUSCLEMOTION); format: cell-based; settings: 1000 nM, seventh day of the culture
[3] = tested on: cardiomyocyte multicellular construct (human iPS cell derived cardiomyocytes); assay: Example 8: calcium imaging, ratio of specimens with arrhythmia waveform; settings: for Ratio of specimens that exhibited the calcium ion signal waveform corresponding to arrhythmia, Dose 1 (%): Dose 1 of Table 5: azithromycin 1 μM, chloroquine or hydroxychloroquine 0.3 μM; for Ratio of specimens that exhibited the calcium ion signal waveform corresponding to arrhythmia, Dose 1 (%) / Ratio of specimens that exhibited the calcium ion signal waveform corresponding to arrhythmia, Dose 2 (%) / Ratio of specimens that exhibited the calcium ion signal waveform corresponding to arrhythmia, Dose 3 (%) / Ratio of specimens that exhibited the calcium ion signal waveform corresponding to arrhythmia, Dose 4 (%): alone or with azithromycin fixed to 3 μM; for Ratio of specimens that exhibited the calcium ion signal waveform corresponding to arrhythmia, Dose 2 (%): Dose 2 of Table 5: azithromycin 3 μM, chloroquine or hydroxychloroquine 1 μM; for Ratio of specimens that exhibited the calcium ion signal waveform corresponding to arrhythmia, Dose 3 (%): Dose 3 of Table 5: azithromycin 10 μM, chloroquine or hydroxychloroquine 3 μM; for Ratio of specimens that exhibited the calcium ion signal waveform corresponding to arrhythmia, Dose 4 (%): Dose 4 of Table 5: chloroquine or hydroxychloroquine 10 μM, azithromycin alone: no Dose 4 in Table 5
[4] = tested on: cardiomyocyte multicellular construct (human iPS cell derived cardiomyocytes); assay: Example 8: contractile force of cardiomyocyte multicellular construct, ratio of specimens with halved contractile force; settings: alone or with azithromycin fixed to 3 μM; for Ratio of specimens whose contractile force decreased to half of that before the addition, Dose 1 (%): Dose 1 of Table 5: azithromycin 1 μM, chloroquine or hydroxychloroquine 0.3 μM; for Ratio of specimens whose contractile force decreased to half of that before the addition, Dose 2 (%): Dose 2 of Table 5: azithromycin 3 μM, chloroquine or hydroxychloroquine 1 μM; for Ratio of specimens whose contractile force decreased to half of that before the addition, Dose 3 (%): Dose 3 of Table 5: azithromycin 10 μM, chloroquine or hydroxychloroquine 3 μM
[5] = tested on: human iPS cell derived cardiomyocyte multicellular construct; assay: Example 5: calcium ion imaging of multicellular construct, response against isoproterenol; format: cell-based; settings: 100 nM, 5 minutes after addition, fourth day of the culture; 60 bpm before the addition
Procedure: Cells were seeded in the same manner as in Example 4, and a liquid culture medium was added 4 hours later to start cell culturing. On the fourth day of the culture, a calcium indicator (EarlyTox Cardiotoxicity Kit, Molecular Devices LLC.) was added to the culture medium at a volume ratio of 5/100 to fluorescently stain calcium ions in the cardiomyocytes.
Videos were captured at 20 FPS using a confocal imaging confocal imaging system (CellVoyager CQ1, Yokogawa Electric Corp.). Fluorescent areas in the obtained videos were recognized using an analysis software CellPathfinder, Yokogawa Electric Corp.), and signal waveforms of calcium ions in the cardiomyocytes were obtained by plotting the fluorescence intensities versus time.

[6] = tested on: cardiomyocyte multicellular construct (human iPS cell derived cardiomyocytes)

Row | Structure (SMILES) | Calcium ion signal waveform compared with before the addition [1] | Beating rate compared with before the addition [1] | Contractile force compared with before the addition [2] | Contraction-relaxation rate compared with before the addition [2] | Ratio of specimens that exhibited the calcium ion signal waveform corresponding to arrhythmia, Dose 1 (%) [3] [%] | Ratio of specimens that exhibited the calcium ion signal waveform corresponding to arrhythmia, Dose 2 (%) [3] [%] | Ratio of specimens that exhibited the calcium ion signal waveform corresponding to arrhythmia, Dose 3 (%) [3] [%] | Ratio of specimens that exhibited the calcium ion signal waveform corresponding to arrhythmia, Dose 4 (%) [3] [%] | Ratio of specimens whose contractile force decreased to half of that before the addition, Dose 1 (%) [4] [%] | Ratio of specimens whose contractile force decreased to half of that before the addition, Dose 2 (%) [4] [%] | Ratio of specimens whose contractile force decreased to half of that before the addition, Dose 3 (%) [4] [%] | other results
1 | Cc1cccc(CCN2CCC(C(=O)c3ccc(NS(C)(=O)=O)cc3)CC2)n1 [Example E-4031] | became flattened | decreased | decreased | decreased | – | – | – | – | – | – | – | –
2 | CC[C@H]1OC(=O)[C@H](C)[C@@H](O[C@H]2C[C@@](C)(OC)[C@@H](O)[C@H](C)O2)[C@H](C)[C@@H](O[C@@H]2O[C@H](C)C[C@H](N(C)C)[C@H]2O)[C@](C)(O)C[C@@H](C)CN(C)[C@H](C)[C@@H](O)[C@]1(C)O [Azithromycin, azithromycin] | – | – | – | – | 0 | 0 | 0 | 0 | 0 | 0 | 100 | –
3 | CCN(CCO)CCCC(C)Nc1ccnc2cc(Cl)ccc12 (stereo not drawn) [Hydroxychloroquine, hydroxychloroquine] | – | – | – | – | 0 | 0 | 20 | 80 | 0 | 0 | 20 | Risk of arrhythmia (conclusion from FIG. 20 and Table 6) ([3]; concentrations of Table 5): increase the risk of arrhythmia; Ratio of specimens whose contractile force decreased to half of that before the addition, Dose 4 (%) ([4]; Dose 4 of Table 5: chloroquine or hydroxychloroquine 10 μM): 100%
4 | CC(C)NCC(O)c1ccc(O)c(O)c1 (stereo not drawn) [Isoproterenol, isoproterenol] | became sharper | increased | increased | increased | – | – | – | – | – | – | – | Beating rate after the addition [5]: 76 bpm
5 | COc1ccc(CCN(C)CCCC(C#N)(c2ccc(OC)c(OC)c2)C(C)C)cc1OC (stereo not drawn) [Verapamil, verapamil] | became smaller | increased | decreased | decreased | – | – | – | – | – | – | – | –
6 | CCN(CC)CCCC(C)Nc1ccnc2cc(Cl)ccc12 (stereo not drawn) [Chloroquine, chloroquine] | – | – | – | – | – | – | – | – | – | – | – | Risk of arrhythmia (conclusion from FIG. 20 and Table 6) [6]: increase the risk of arrhythmia
